According to ChEMBL document CHEMBL5150046, “Discovery of a Series of 5-Amide-1H-pyrazole-3-carboxyl Derivatives as Potent P2Y14R Antagonists with Anti-Inflammatory Characters” (J Med Chem, 2022):
Converted amounts (≈) assume the structure as drawn. One block for each compound: values may come before it. The source made the active and inactive calls. The calls are words filed in the database; no cut-off is given here.

Legend:
P2Y purinoceptor 13 = target: T1, P2Y purinoceptor 13 (Homo sapiens, UniProt Q9BPV8); assay: Antagonist activity at human P2Y13R expressed in HEK293 cells assessed as inhibition of 2MeSADP-induced cAMP production preincubated for 0.5 hrs followed by 2MeSADP stimulation by cAMP-glo assay; assay type: functional, cell-based
T1 sequence (Q9BPV8 whole entry): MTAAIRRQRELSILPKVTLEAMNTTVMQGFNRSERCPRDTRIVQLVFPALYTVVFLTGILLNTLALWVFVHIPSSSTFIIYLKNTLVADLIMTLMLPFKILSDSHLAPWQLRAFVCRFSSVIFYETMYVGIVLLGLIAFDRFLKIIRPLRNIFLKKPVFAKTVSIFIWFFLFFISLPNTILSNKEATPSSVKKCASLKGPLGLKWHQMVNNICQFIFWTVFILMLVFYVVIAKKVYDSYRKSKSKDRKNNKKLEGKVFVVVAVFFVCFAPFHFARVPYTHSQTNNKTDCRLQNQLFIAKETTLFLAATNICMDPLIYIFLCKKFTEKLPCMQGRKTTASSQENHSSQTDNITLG

[1] = target: T2, P2Y purinoceptor 14 (Homo sapiens) (UniProt Q15391)
T2 sequence (whole entry): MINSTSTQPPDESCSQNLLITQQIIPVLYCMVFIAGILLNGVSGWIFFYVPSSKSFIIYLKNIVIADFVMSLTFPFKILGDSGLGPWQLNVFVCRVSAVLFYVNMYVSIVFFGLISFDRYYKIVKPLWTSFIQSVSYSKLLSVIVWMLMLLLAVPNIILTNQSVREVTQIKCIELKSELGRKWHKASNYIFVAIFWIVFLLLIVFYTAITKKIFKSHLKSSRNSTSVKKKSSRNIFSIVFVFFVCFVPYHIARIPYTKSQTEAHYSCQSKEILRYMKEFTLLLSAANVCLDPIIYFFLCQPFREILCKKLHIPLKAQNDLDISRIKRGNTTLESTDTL

[2] = Aqueous solubility of the compound in double distilled water at pH 7 incubated for 24 hrs by UV-3000 absorption spectrometry analysis; assay type: physicochemical; conditions: double distilled water, pH 7
[3] = Aqueous solubility of the compound in PBS at pH 7.4 incubated for 24 hrs by UV-3000 absorption spectrometry analysis; assay type: physicochemical; conditions: PBS, pH 7.4
[4] = Aqueous solubility of the compound in simulated gastric fluid without pepsin at pH 1.2 incubated for 24 hrs by UV-3000 absorption spectrometry analysis; assay type: physicochemical
[5] = Aqueous solubility of the compound in simulated intestinal fluid without trypsin at pH 6.8 incubated for 24 hrs by UV-3000 absorption spectrometry analysis; assay type: physicochemical
P2Y purinoceptor 14 = target: T3, P2Y purinoceptor 14 (Homo sapiens, UniProt Q15391); assay: Antagonist activity at P2Y14R (unknown origin) expressed in HEK293 cells assessed as inhibition of forskolin-stimulated cAMP accumulation incubated in presence of IBMX by cAMP-glo assay; assay type: functional, cell-based
T3 sequence (Q15391 whole entry): T2 sequence (whole entry)

[6] = (§1) Inhibition of caspase-1 mediated pyroptosis in LPS/ATP induced PMA-differentiated human THP-1 cells assessed as late apoptotic cells at 10 uM pretreated for 24 hrs followed by LPS addition for 3 hrs and further incubated for 1 hr with ATP by caspase-1/PI staining based flow cytometry analysis (reference value: 16.3%); assay type: functional; design: scale not given: the % may be the effect or the level left; conditions: time 28 hrs
[7] = as §1, with “live” for “late apoptotic”, “43.3%)” for “16.3%)”; assay type: functional; design: scale not given: the % may be the effect or the level left; conditions: time 28 hrs
[8] = as §1, with “dead” for “late apoptotic”, “22.5%)” for “16.3%)”; assay type: functional; design: scale not given: the % may be the effect or the level left; conditions: time 28 hrs
[9] = as §1, with “early” for “late”, “17.9%)” for “16.3%)”; assay type: functional; design: scale not given: the % may be the effect or the level left; conditions: time 28 hrs
[10] = Metabolic stability in human liver microsomes assessed as half life at 2 ug/ml preincubated for 5 mins followed by NADPH addition and measured upto 45 mins by LC-MS/MS analysis; assay type: ADME, Microsome; conditions: dose 2 µg/ml, time < 50 min
P2Y purinoceptor 12 = P2Y purinoceptor 12 (Homo sapiens, UniProt Q9H244); assay: Antagonist activity at P2Y12R (unknown origin) expressed in CHO cells assessed as inhibition of forskolin-stimulated cAMP accumulation incubated for 15 mins in presence of IBMX by chromatography; assay type: functional, cell-based
[11] = Oral bioavailability in Sprague-Dawley rat at 10 mg/kg measured for 24 hrs; assay type: ADME, organism-based; conditions: in vivo
P2Y purinoceptor 6 = P2Y purinoceptor 6 (Homo sapiens, UniProt Q15077)
Mus musculus [12] = assay: Antiinflammatory activity in ICR mouse model of LPS-induced acute peritonitis assessed as reduction in IL-1beta level in peritoneal fluid at 5 mg/kg, ip pretreated for 1 hr followed by LPS stimulation and measured after 6 hrs by qRT-PCR analysis; assay type: functional, organism-based; conditions: time 7.0 hrs
Mus musculus [13] = assay: Antiinflammatory activity in ICR mouse model of LPS-induced acute peritonitis assessed as reduction in IL-6 level in peritoneal fluid at 5 mg/kg, ip pretreated for 1 hr followed by LPS stimulation and measured after 6 hrs by qRT-PCR analysis; assay type: functional, organism-based; conditions: time 7.0 hrs
Mus musculus [14] = assay: Antiinflammatory activity in ICR mouse model of LPS-induced acute peritonitis assessed as reduction in TNF-alpha level in peritoneal fluid at 5 mg/kg, ip pretreated for 1 hr followed by LPS stimulation and measured after 6 hrs by qRT-PCR analysis; assay type: functional, organism-based; conditions: time 7.0 hrs
[15] = HEK293, filed as antagonist, dose 100.0 nM

Sequence of P2Y purinoceptor 12 (Q9H244 whole entry): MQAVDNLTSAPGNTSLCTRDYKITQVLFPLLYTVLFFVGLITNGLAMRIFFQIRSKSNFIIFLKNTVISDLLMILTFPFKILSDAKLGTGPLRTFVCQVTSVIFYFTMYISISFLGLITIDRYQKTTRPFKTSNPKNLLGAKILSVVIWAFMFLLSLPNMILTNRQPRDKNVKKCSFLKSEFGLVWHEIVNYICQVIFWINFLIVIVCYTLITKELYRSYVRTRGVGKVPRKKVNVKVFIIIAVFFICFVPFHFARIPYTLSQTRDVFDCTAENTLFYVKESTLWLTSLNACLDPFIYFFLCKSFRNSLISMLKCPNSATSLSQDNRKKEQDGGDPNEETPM
Sequence of P2Y purinoceptor 6 (Q15077 whole entry): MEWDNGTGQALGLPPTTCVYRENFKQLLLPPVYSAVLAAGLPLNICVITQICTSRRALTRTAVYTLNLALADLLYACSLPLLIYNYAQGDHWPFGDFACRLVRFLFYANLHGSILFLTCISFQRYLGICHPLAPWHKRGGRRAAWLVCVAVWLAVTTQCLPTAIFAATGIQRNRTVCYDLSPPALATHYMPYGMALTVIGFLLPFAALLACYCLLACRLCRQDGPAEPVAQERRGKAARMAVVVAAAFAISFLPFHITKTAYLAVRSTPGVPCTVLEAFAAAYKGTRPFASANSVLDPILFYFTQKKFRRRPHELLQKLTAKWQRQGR

Compound: CCCSc1nc(N[C@@H]2C[C@H]2c2ccc(F)c(F)c2)c2nnn([C@@H]3C[C@H](OCCO)[C@@H](O)[C@H]3O)c2n1 [TICAGRELOR]
IC50 (P2Y purinoceptor 13): 1.4 µM

Compound: N#Cc1ccc(C(=O)Nc2cc(C(=O)O)nn2Cc2ccc(F)cc2)cc1
inhibition ([1]; HEK293, dose 100.0 nM): 22.4%

Compound: Cc1ccc(C(=O)Nc2cc(C(=O)O)cc(-c3ccoc3)c2)cc1
solubility at 24 h [2]: 77.6 µg/mL (≈ 241 µM)
solubility at 24 h [3]: 878 µg/mL (≈ 2730 µM)
solubility ([4]; simulated gi fluid, pH 1.2, 24 h): 69.1 µg/mL (≈ 215 µM)
solubility ([5]; simulated gi fluid, pH 6.8, 24 h): 471.1 µg/mL (≈ 1470 µM)

Compound: Cc1ccc(CC(=O)Nc2cc(C(=O)O)nn2Cc2ccc(F)cc2)cc1
inhibition ([1]; HEK293, dose 100.0 nM): 28.5%

Compound: O=C(O)c1cc(-c2ccc(C3CCNCC3)cc2)c2ccc(-c3ccc(C(F)(F)F)cc3)cc2c1 [PPTN]
solubility at 24 h [2]: < 5 µg/mL
Activity [6]: 4.33%
solubility at 24 h [3]: < 5 µg/mL
Activity [7]: 79.8%
Activity [8]: 11.2%
Activity [9]: 4.68%
half-life at 2 ug/ml [10]: 46 min
IC50 (P2Y purinoceptor 12): > 10 µM
solubility at 24 h ([4]; simulated gastric fluid without pepsin, pH 1.2): < 5 µg/mL
solubility at 24 h ([5]; simulated intestinal fluid without trypsin, pH 6.8): < 5 µg/mL
bioavailability [11]: 5%

Compound: CC(=O)c1ccc(Cn2nc(C(=O)O)cc2NC(=O)c2ccc(C)cc2)cc1
IC50 (P2Y purinoceptor 14): 0.067 µM
inhibition [1, 15]: 66.3%

Compound: Cc1ccccc1C(=O)Nc1cc(C(=O)O)nn1Cc1ccc(F)cc1
inhibition ([1]; HEK293, dose 100.0 nM): 28.5%

Compound: C[C@@H]1C[C@H]2[C@@H]3CCC4=CC(=O)C=C[C@]4(C)[C@@]3(F)[C@@H](O)C[C@]2(C)[C@@]1(O)C(=O)CO
Activity (Mus musculus [12]): Active
Activity (Mus musculus [13]): Active
Activity (Mus musculus [14]): Active

Compound: O=C(Nc1cc(C(=O)O)nn1Cc1ccc(F)cc1)c1ccc(C(F)(F)F)cc1
inhibition ([1]; HEK293, dose 100.0 nM): 31.4%

Now from value to compound:

inhibition [1, 15]: 53.7%
Compound: Cc1ccc(C(=O)Nc2cc(C(=O)O)nn2Cc2ccc(F)cc2)cn1

inhibition [1, 15]: 77.9%
Compound: Cc1ccc(C(=O)Nc2cc(C(=O)O)nn2Cc2ccc(F)cc2)s1

IC50 (P2Y purinoceptor 14): 0.041 µM
inhibition [1, 15]: 79.8%
Compound: Cc1ccc(C(=O)Nc2cc(C(=O)O)nn2Cc2cc(F)cc(F)c2)cc1

inhibition [1, 15]: 68.3%
Compound: CCOC(=O)c1cc(NC(=O)c2ccc(C)cc2)n(Cc2ccc(F)cc2)n1

inhibition ([1]; HEK293, dose 100.0 nM): 3.05%
Compound: CC(C)(C)c1ccc(C(=O)Nc2cc(C(=O)O)nn2Cc2ccc(F)cc2)cc1

IC50 (P2Y purinoceptor 14): 0.111 µM
inhibition [1, 15]: 58.5%
Compound: Cc1ccc(C(=O)Nc2cc(C(=O)O)nn2Cc2ccccc2F)cc1

IC50 (P2Y purinoceptor 6): 39.5 µM
Compound: S=C=Nc1cccc(NC(=S)NCCCCNC(=S)Nc2cccc(N=C=S)c2)c1
